For 14 molecules, IC50, DC50 and Dmax results are on record in patent publication US20230295118A1 (EnhancedBio Inc., priority 2022, published 2023).

Some results are limits rather than exact numbers.

Format in all cases: cell-based
For assay [1], the system named is mantle cell lymphoma cell (Mino or JeKo-1). In words: Antiproliferative effect, MTS cell viability assay. Conditions: 72 h, mantle cell lymphoma cell (Mino or JeKo-1), MTS assay, read-out: IC50 (anti-proliferation). In short, it runs like this:
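MTS read-out (formazan absorbance at 490 nm) after 72 h exposure of Mino cells to 0–1 μM compound (0.0001, 0.001, 0.01, 0.1, 1 μM). Palbociclib and abemaciclib served as positive controls.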

Assay [2] deals with T1, CDK4 (Homo sapiens, UniProt P11802).
T1 construct: endogenous in cells
T1 sequence (P11802 whole entry): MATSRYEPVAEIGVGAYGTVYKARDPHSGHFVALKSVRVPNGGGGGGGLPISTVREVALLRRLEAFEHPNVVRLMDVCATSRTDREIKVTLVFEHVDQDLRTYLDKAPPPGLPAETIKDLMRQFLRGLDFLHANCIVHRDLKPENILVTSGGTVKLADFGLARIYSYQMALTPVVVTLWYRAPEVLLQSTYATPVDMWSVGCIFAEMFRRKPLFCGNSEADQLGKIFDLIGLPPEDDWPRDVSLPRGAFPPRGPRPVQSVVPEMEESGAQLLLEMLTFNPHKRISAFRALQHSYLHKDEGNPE
In words: CDK4 degradation (DC50, Dmax).

Assay [3] deals with T2, CDK6 (Homo sapiens, UniProt Q00534).
T2 construct: endogenous in cells
T2 sequence (Q00534 whole entry): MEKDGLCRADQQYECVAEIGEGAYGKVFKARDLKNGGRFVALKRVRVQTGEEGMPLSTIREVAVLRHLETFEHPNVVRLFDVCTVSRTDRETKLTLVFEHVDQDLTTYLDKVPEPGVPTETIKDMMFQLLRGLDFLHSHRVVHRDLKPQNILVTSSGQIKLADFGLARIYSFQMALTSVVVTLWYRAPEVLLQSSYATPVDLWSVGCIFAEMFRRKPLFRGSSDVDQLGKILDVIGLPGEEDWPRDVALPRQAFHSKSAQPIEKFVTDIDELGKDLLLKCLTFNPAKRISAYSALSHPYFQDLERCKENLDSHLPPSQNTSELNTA
Nature of the assay: CDK6 degradation (DC50, Dmax).

By DC50 is commonly meant the concentration at which degradation of the target reaches its halfway point. A high value points to a less potent degrader. What is called Dmax is the largest share of the target that was removed. Higher therefore signals a fuller loss of target. Turning to `Cc1nc2c(F)cc(-c3nc(Nc4ccc(CN5CCN(CC6CCN(c7ccc(C(=O)NC8CCC(=O)NC8=O)cc7)CC6)CC5)cn4)ncc3F)cc2n1C(C)C` (stereo not shown) [Compound 151, N-(2,6-dioxopiperidin-3-yl)-4-(4-((4-((6-((5-fluoro-4-(4-fluoro-1-isopropyl-2-methyl-1H-benzo[d]imidazol-6-yl)pyrimidin-2-yl)amino)pyridin-3-yl)methyl)piperazin-1-yl)methyl)piperidin-1-yl)benzamide], the IC50 in assay [1] was below 50 nM. In assay [2], this molecule came in with a half-maximal degradation concentration (DC50) of 50 to 200 nM and a Dmax above 80%. In assay [3], this molecule gave a 50% degradation concentration (DC50) of 50 to 200 nM and a maximal degradation (Dmax) above 60%.
Regarding `CC(=O)c1c(C)c2cnc(Nc3ccc(N4CCN(C5CCN(c6ccc7c(c6)CN(C6CCC(=O)NC6=O)C7=O)CC5)CC4)cn3)nc2n(C2CCCC2)c1=O` (stereo not shown) [Compound 64, 3-(5-(4-(4-(6-((6-acetyl-8-cyclopentyl-5-methyl-7-oxo-7,8-dihydropyrido[2,3-d]pyrimidin-2-yl)amino)pyridin-3-yl)piperazin-1-yl)piperidin-1-yl)-1-oxoisoindolin-2-yl)piperidine-2,6-dione], the IC50 in assay [1] is below 50 nM. Also, in assay [2], the DC50 is 50 to 200 nM and the greatest degradation seen (Dmax) is above 80%. In assay [3], this molecule showed a half-maximal degradation concentration (DC50) of 50 to 200 nM and a maximal degradation (Dmax) above 80%.
For the molecule `CN(C)C(=O)c1cc2cnc(Nc3ccc(N4CCN(CCCNc5ccc6c(c5)C(=O)N(C5CCC(=O)NC5=O)C6=O)CC4)cn3)nc2n1C1CCCC1` (stereo not shown) [Compound 75, 7-cyclopentyl-2-((5-(4-(3-((2-(2,6-dioxopiperidin-3-yl)-1,3-dioxoisoindolin-5-yl)amino)propyl)piperazin-1-yl)pyridin-2-yl)amino)-N,N-dimethyl-7H-pyrrolo[2,3-d]pyrimidine-6-carboxamide], the IC50 in assay [1] is below 50 nM. Besides, in assay [2], the DC50 was below 50 nM and the Dmax was above 80%. In assay [3], the 50% degradation concentration (DC50) was below 50 nM and the Dmax was above 80%.
In the case of `CC(=O)c1c(C)c2cnc(Nc3ccc(N4CCN(CC5CCN(c6cccc7c6C(=O)N(C6CCC(=O)NC6=O)C7=O)CC5)CC4)cn3)nc2n(C2CCCC2)c1=O` (stereo not shown) [Compound 78, 4-(4-((4-(6-((6-acetyl-8-cyclopentyl-5-methyl-7-oxo-7,8-dihydropyrido[2,3-d]pyrimidin-2-yl)amino)pyridin-3-yl)piperazin-1-yl)methyl)piperidin-1-yl)-2-(2,6-dioxopiperidin-3-yl) isoindoline-1,3-dione], the IC50 in assay [1] was 50 to 200 nM. The DC50 in assay [2] and in assay [3] was 50 to 200 nM each time. Moreover, the Dmax in assay [2] and in assay [3] was above 60% throughout.
Regarding `Cc1nc2c(F)cc(-c3nc(Nc4ccc(CN5CCN(CC6CN(c7ccc(N8CCC(=O)NC8=O)cc7)C6)CC5)cn4)ncc3F)cc2n1C(C)C` [Compound 106, 1-(4-(3-((4-((6-((5-fluoro-4-(4-fluoro-1-isopropyl-2-methyl-1H-benzo[d]imidazol-6-yl)pyrimidin-2-yl)amino)pyridin-3-yl)methyl)piperazin-1-yl)methyl)azetidin-1-yl)phenyl) dihydropyrimidine-2,4(1H,3H)-dione], the IC50 in assay [1] was below 50 nM. Further, in assay [2], the DC50 is below 50 nM and the maximal degradation (Dmax) is above 80%. In assay [3], this molecule registered a DC50 below 50 nM and a Dmax above 80%.
Turning to `CC(=O)c1c(C)c2cnc(Nc3ccc(C4CCN(C(=O)C5CN(c6ccc(NC7CCC(=O)NC7=O)cc6)C5)CC4)cn3)nc2n(C2CCCC2)c1=O` (stereo not shown) [Compound 132, 3-((4-(3-(4-(6-((6-acetyl-8-cyclopentyl-5-methyl-7-oxo-7,8-dibydropyrido[2,3-d]pyrimidin-2-yl)amino)pyridin-3-yl)piperidine-1-carbonyl)azetidin-1-yl)phenyl)amino) piperidine-2,6-dione], in assay [1], the IC50 is below 50 nM. Besides, in assay [2], the DC50 was 50 to 200 nM and the Dmax is above 80%. In assay [3], this molecule came in with a 50% degradation concentration (DC50) below 50 nM and a Dmax above 80%.
Take `Cc1nc2c(F)cc(-c3nc(Nc4ccc(CC5CCN(CC6CN(c7ccc(NC8CCC(=O)NC8=O)cc7)C6)CC5)cn4)ncc3F)cc2n1C(C)C` (stereo not shown) [Compound 142, 3-((4-(3-((4-((6-((5-fluoro-4-(4-fluoro-1-isopropyl-2-methyl-1H-benzo[d]imidazol-6-yl)pyrimidin-2-yl)amino)pyridin-3-yl)methyl)piperidin-1-yl)methyl)azetidin-1-yl)phenyl)amino) piperidine-2,6-dione]: the IC50 in assay [1] is below 50 nM. Moreover, the half-maximal degradation concentration (DC50) in assay [2] and in assay [3] was 50 to 200 nM each time. Moreover, the Dmax in assay [2] and in assay [3] was above 80% in each case.
`CC(=O)c1c(C)c2cnc(Nc3ccc(N4CCN(C(=O)N5CCN(CC6CCN(c7ccc8c(c7)C(=O)N(C7CCC(=O)NC7=O)C8=O)CC6)CC5)CC4)cn3)nc2n(C2CCCC2)c1=O` (stereo not shown) [Compound 15, 5-(4-((4-(4-(6-((6-acetyl-8-cyclopentyl-5-methyl-7-oxo-7,8-dihydropyrido[2,3-d]pyrimidin-2-yl)amino)pyridin-3-yl)piperazine-1-carbonyl)piperazin-1-yl)methyl)piperidin-1-yl)-2-(2,6-dioxopiperidin-3-yl) isoindoline-1,3-dione]: in assay [1], the IC50 was above 200 nM. Further, in assay [2], the DC50 was above 200 nM and the Dmax is above 50%. In assay [3], this molecule had a DC50 above 200 nM and a Dmax above 50%.
Consider `CC(=O)c1c(C)c2cnc(Nc3ccc(N4CCN(CCNc5ccc6c(c5)CN(C5CCC(=O)NC5=O)C6=O)CC4)cn3)nc2n(C2CCCC2)c1=O` (stereo not shown) [Compound 48, 3-(5-((2-(4-(6-((6-acetyl-8-cyclopentyl-5-methyl-7-oxo-7,8-dihydropyrido[2,3-d]pyrimidin-2-yl)amino)pyridin-3-yl)piperazin-1-yl)ethyl)amino)-1-oxoisoindolin-2-yl)piperidine-2,6-dione], for which, in assay [1], the IC50 was below 50 nM. For the same molecule, the half-maximal degradation concentration (DC50) in assay [2] and in assay [3] was below 50 nM throughout. Further, the Dmax in assay [2] and in assay [3] was above 80% each time.
Regarding `CC(=O)c1c(C)c2cnc(Nc3ccc(N4CCN(C(=O)N5CCC(CCN6CCC(c7ccc8c(c7)C(=O)N(C7CCC(=O)NC7=O)C8=O)CC6)CC5)CC4)cn3)nc2n(C2CCCC2)c1=O` (stereo not shown) [Compound 29, 5-(1-(2-(1-(4-(6-((6-acetyl-8-cyclopentyl-5-methyl-7-oxo-7,8-dihydropyrido[2,3-d]pyrimidin-2-yl)amino)pyridin-3-yl)piperazine-1-carbonyl)piperidin-4-yl)ethyl)piperidin-4-yl)-2-(2,6-dioxopiperidin-3-yl)isoindoline-1,3-dione], in assay [1], the IC50 was above 200 nM. In addition, in assay [2], the half-maximal degradation concentration (DC50) is above 200 nM and the greatest degradation seen (Dmax) is above 50%. In assay [3], the DC50 was above 200 nM and the maximal degradation (Dmax) is above 50%.
Consider `CC(=O)c1c(C)c2cnc(Nc3ccc(N4CCN(CCN5CCN(C(=O)Nc6ccc7c(c6)C(=O)N(C6CCC(=O)NC6=O)C7=O)CC5)CC4)cn3)nc2n(C2CCCC2)c1=O` (stereo not shown) [Compound 43, 4-(2-(4-(6-((6-acetyl-8-cyclopentyl-5-methyl-7-oxo-7,8-dihydropyrido[2,3-d]pyrimidin-2-yl)amino)pyridin-3-yl)piperazin-1-yl)ethyl)-N-(2-(2,6-dioxopiperidin-3-yl)-1,3-dioxoisoindolin-5-yl)piperazine-1-carboxamide], for which the IC50 in assay [1] was 50 to 200 nM. The DC50 in assay [2] and in assay [3] was 50 to 200 nM in each case. The greatest degradation seen (Dmax) in assay [2] and in assay [3] was above 60% each time.
Take `CC(=O)c1c(C)c2cnc(Nc3ccc(N4CCN(C(=O)N5CCN(C6CCN(c7ccc8c(c7)C(=O)N(C7CCC(=O)NC7=O)C8=O)CC6)CC5)CC4)cn3)nc2n(C2CCCC2)c1=O` (stereo not shown) [Compound 5, 5-(4-(4-(4-(6-((6-acetyl-8-cyclopentyl-5-methyl-7-oxo-7,8-dihydropyrido[2,3-d]pyrimidin-2-yl)amino)pyridin-3-yl)piperazine-1-carbonyl)piperazin-1-yl)piperidin-1-yl)-2-(2,6-dioxopiperidin-3-yl)isoindoline-1,3-dione]: the IC50 in assay [1] fell in the range of 50 to 200 nM. In addition, the half-maximal degradation concentration (DC50) in assay [2] and in assay [3] was above 200 nM in each case. Further, the Dmax in assay [2] and in assay [3] was above 60% throughout.
For `Cc1nc2c(F)cc(-c3nc(Nc4ccc(CN5CCN(C(=O)C6CN(c7ccc8c(c7)CN(C7CCC(=O)NC7=O)C8=O)C6)CC5)cn4)ncc3F)cc2n1C(C)C` (stereo not shown) [Compound 136, 3-(5-(3-(4-((6-((5-fluoro-4-(4-fluoro-1-isopropyl-2-methyl-1H-benzo[d]imidazol-6-yl)pyrimidin-2-yl)amino)pyridin-3-yl)methyl)piperazine-1-carbonyl)azetidin-1-yl)-1-oxoisoindolin-2-yl) piperidine-2,6-dione], in assay [1], the IC50 was below 50 nM. In addition, in assay [2], the half-maximal degradation concentration (DC50) was 50 to 200 nM and the maximal degradation (Dmax) is above 80%. Moreover, in assay [3], the 50% degradation concentration (DC50) fell in the range of 50 to 200 nM and the Dmax was above 80%.
For the molecule `CC(=O)c1c(C)c2cnc(Nc3ccc(C4CCN(CC5CN(c6ccc7c(c6)C(=O)N(C6CCC(=O)NC6=O)C7=O)C5)CC4)cn3)nc2n(C2CCCC2)c1=O` (stereo not shown) [Compound 125, 5-(3-((4-(6-((6-acetyl-8-cyclopentyl-5-methyl-7-oxo-7,8-dihydropyrido[2,3-d]pyrimidin-2-yl)amino)pyridin-3-yl)piperidin-1-yl)methyl)azetidin-1-yl)-2-(2,6-dioxopiperidin-3-yl)isoindoline-1,3-dione], the IC50 in assay [1] is below 50 nM. In addition, in assay [2], the half-maximal degradation concentration (DC50) is below 50 nM and the Dmax is above 80%. For the same molecule, in assay [3], the DC50 is below 50 nM and the Dmax was above 80%.
